US4657897A, “N^6 -substituted adenosines for treating pain” (Warner-Lambert Company, priority 1985, dated 1987)

Legend:
[1] = molecular target: T1, adenosine A2 receptor (Rattus norvegicus, UniProt P30543); experiment: Adenosine Receptor Binding--A2 Receptor Affinity (RBA2), [3H]NECA binding, rat striatal membranes; design: species or system rat (mixed sex Sprague-Dawley; male Long-Evans); conditions: 4 nM [3H]NECA, 50 nM N6-cyclopentyladenosine, 25° C., 60 min
T1 construct: 5 mg original tissue weight of rat weight of rat striatal membranes; tissue Pel-Freez (Rogers, Ark.) for the brains; host or cells: rat striatum (Sprague-Dawley; Long-Evans gave essentially identical results), membranes
Procedure: Adenosine Receptor Binding--A2 Receptor Affinity (RBA2)
Brains from 200-500 g mixed sex Sprague-Dawley rats were purchased from Pel-Freez (Rogers, Ark.). […] Brains were thawed and then kept on ice while the striata were dissected out. Striata were disrupted in 10 vol of ice-cold 50 mM Tris.HCl (pH 7.7 at 25° C., pH 8.26 at 5° C.) (Tris) for 30 seconds in a Polytron PT-10 (Brinkmann) at setting 5. The suspension was centrifuged at 50,000 xg for ten minutes, the supernatant discarded, the pellet resuspended in 10 vol ice-cold Tris as above, recentrifuged, resuspended at 1 g/5 ml, and stored in plastic vials at -70° C. […] When needed, tissue was thawed at room temperature, disrupted in a Polytron, and kept on ice until used.
Test compounds were dissolved at 10 mM in dimethylsulfoxide on the same day as the experiment, and diluted in dimethylsulfoxide to 100× the final incubation concentration. […] [^3 H]NECA was diluted to 40 nM in Tris. […] After all additions, the rack of tubes was vortexed, and the tubes were then incubated for 60 min at 25° C. in a shaking water bath. The rack of tubes was vortexed an additional time halfway through the incubation.
Incubations were terminated by filtration through 2.4 cm GF/B filters under reduced pressure. Each tube was filtered as follows: the contents of the tube were poured onto the filter, 4 ml of ice-cold Tris were added to the tube and the contents poured onto the filter, and the filter was washed twice with 4 ml of ice-cold Tris. The filtration was complete in about twelve seconds. Filters were put in scintillation vials, 8 ml of Formula 947 scintillation fluid added, and the vials left overnight, shaken, and counted in a liquid scintillation counter at 40% efficiency.
The IC50 was calculated by weighted nonlinear least squares curve-fitting to the mass-action equation. [formula] where Y is cpm bound
T is cpm total binding without drug
S is cpm specific binding without drug
D is the concentration of drug
K is the IC50 of the drug
Weighting factors were calculated under the assumption that the standard deviation was proportional to the predicted value of Y. Nonspecific binding was treated as a very large (infinite) concentration of drug in the computer analysis.

[2] = Mouse Activity and Screen Test (MAST), screen test failure (ST); type: in vivo, mouse (Swiss-Webster, male); conditions: for Inhibition of screen test failure: percent of mice falling off the screen
Procedure: Treatments are administered intraperitoneally one hour prior to testing. […] Compounds are dissolved or suspended in 0.2% Methocel. Control animals are injected with Methocel.
The compounds are identified in the Examples.

[3] = test system: rat heart; experiment: Coronary blood flow (PCS2A), isolated perfused rat heart; design: species or system rat (male); conditions: read-out: effect on heart rate (HR)
Procedure: Male rats (400-600 gms) are pretreated with Na heparin 2000 units and anesthetized with Na pentobarbital (50 mg/kg) administered intraperitoneally. Once anesthetized, the rat heart is rapidly excised, the ascending aorta fitted to the aortic perfusion cannula, and secured with a ligature. The coronary arteries are perfused initially at a rate of about 15 ml/min for two to three minutes, afterwhich they are perfused at constant pressure of 70 mm Hg and temperature of 37° C. The electrocardiogram (ECG) is recorded using two platinum electrodes positioned at the base and apex of the left ventricle. A second heart is excised, cannulated, and perfused by the same method outlined above. Both hearts are tested in parallel. The standard physiological salt solution (PSS) is a modified Krebs-Hanseleit bicarbonate buffer of the following composition in mM concentration: NaCl, 127; NaHCO3, 25; dextrose, 5.5; Na Pyruvate, 2.0; KCl, 4.7; MgSO4, 1.1; KH 2PO4, 1.2; CaCl2.2H2 O, 2.5; CaNa2 EDTA, 0.05.
A 30-minute stabilization period is observed before starting the test protocol.
The microprocessor control system is a servo mechanism which permits coronary perfusion pressure (CPP) and drug concentration to be maintained constant independent of changes in coronary flow. The level at which CPP and drug concentration are maintained can be changed by commands communicated through the microprocessor keyboard. Dose-response curves are carried out by perfusing concentrated drug solution (DC) at rates proportional to total coronary flow (CFT). Drug concentrations are increased by proportionate increases in the rate of DC infusion over CFT via the microprocessor keyboard. The proportional flow rates for DC:CFT is about 0.0002:1 at the low end and 0.02:1 at the high end of the dose-response curve. Dose-response curves encompassing at least two log doses are carried out by preparing two DCs with a concentration difference of 1:100. Following the first dose range of two log doses, the DC are switched, proportional pumping rate adjusted, and the dose-responsecurve continued for another two log doses. The standard dose-response curve is carried out in one-half log dose increments starting at a subthreshold dose and ending at a dose which produces near maximal response in activity. Standard reference compounds are tested over the range of 10^-9 to 10^-6 M.
Measurements are for heart rate (HR) and coronary flow (CF). Units are: HR, beats/minute (bpm) and CF, milliliters/minute (ml/min). HR is calculated from the ECG strip chart recording and CF is calculated by recording analog outputs from pumps 1 and 2. Outputs from pump #1=CFT and the output from pump #2=CF for heart B (CFB). CF for heart A (CFA) is calculated (CFT -CFB =CFA).

T1 sequence (P30543 whole entry): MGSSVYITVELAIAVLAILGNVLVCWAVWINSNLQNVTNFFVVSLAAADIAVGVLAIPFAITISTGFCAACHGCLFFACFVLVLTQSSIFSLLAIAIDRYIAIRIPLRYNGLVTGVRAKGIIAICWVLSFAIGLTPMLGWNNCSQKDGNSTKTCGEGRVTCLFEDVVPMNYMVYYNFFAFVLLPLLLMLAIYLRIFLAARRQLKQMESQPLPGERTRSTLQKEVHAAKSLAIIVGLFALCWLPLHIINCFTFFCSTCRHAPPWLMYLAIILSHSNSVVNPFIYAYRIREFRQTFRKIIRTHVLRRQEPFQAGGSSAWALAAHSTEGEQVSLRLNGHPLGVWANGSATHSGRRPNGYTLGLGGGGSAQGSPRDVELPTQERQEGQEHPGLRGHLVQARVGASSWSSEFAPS

OC[C@H]1O[C@@H](n2cnc3c(NCCC(c4ccccc4)c4ccccc4)ncnc32)[C@H](O)[C@@H]1O [Example 2, N^6-(3,3-Diphenylpropyl)adenosine]
IC50 [1]: 390 nM | Inhibition of screen test failure ([2]; 10 mg/kg intraperitoneal): 0% | Inhibition of screen test failure ([2]; 30 mg/kg intraperitoneal): 0% | Inhibition of screen test failure ([2]; 100 mg/kg intraperitoneal): 0% | minimal effective dose ([2]; Mus musculus, ip, lowest dose at which an A rating is achieved, screen test, intraperitoneal, 1 h prior to testing, read-out: MAST ST LAD): > 100 mg/kg | activation at 1 µM ([3]; 1 × 10^-6 Molar): -19% | activation at 0.1 µM ([3]; 1 × 10^-7 Molar): -5% | activation at 0.01 µM ([3]; 1 × 10^-8 Molar): -2% | activation at 3 µM ([3]; 3 × 10^-6 Molar): -34%
